The molecules below were run against T1, BMX (Homo sapiens, UniProt P51813) (assay: HTS ATP-utilizing enzyme assay, off-chip mobility-shift (Caliper HTS 250)). Details: test compound 10 μM, kinase listed = active (greater than six-sigma from the mean activity of inactive compounds).
T1 sequence (P51813 1-675): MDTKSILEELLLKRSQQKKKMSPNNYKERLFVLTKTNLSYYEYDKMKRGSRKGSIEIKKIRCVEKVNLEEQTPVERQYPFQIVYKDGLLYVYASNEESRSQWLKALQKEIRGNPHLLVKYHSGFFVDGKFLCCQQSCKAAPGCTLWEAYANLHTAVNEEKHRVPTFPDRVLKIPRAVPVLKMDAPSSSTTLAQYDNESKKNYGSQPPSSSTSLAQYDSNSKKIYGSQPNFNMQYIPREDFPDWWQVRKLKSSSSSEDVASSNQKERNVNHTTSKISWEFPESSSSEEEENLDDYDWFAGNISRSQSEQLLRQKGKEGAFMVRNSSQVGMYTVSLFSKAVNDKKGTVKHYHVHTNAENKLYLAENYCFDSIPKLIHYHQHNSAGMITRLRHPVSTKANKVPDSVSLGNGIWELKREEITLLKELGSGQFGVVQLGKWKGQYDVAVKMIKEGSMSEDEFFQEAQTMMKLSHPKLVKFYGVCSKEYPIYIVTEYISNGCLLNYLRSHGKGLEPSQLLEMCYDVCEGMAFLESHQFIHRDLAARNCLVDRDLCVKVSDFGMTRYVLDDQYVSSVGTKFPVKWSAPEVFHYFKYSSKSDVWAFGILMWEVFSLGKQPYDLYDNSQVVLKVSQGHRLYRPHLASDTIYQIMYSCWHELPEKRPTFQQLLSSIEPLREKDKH
Assay type: biochemical
In short: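 The ratio of peptide substrate to phosphorylated product, measured by microfluidic mobility shift, gave percent inhibition. Reactions contained enzyme, peptide substrate and compound at 10 μM in HEPES pH 7.5 buffer, ran 2.5 hrs at 20° C. to 22° C., and were quenched with EDTA.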

Activity, BMX:
Cc1ccccc1-c1ccc2nccc(Nc3ccc(N4CCN(C)CC4)cc3)c2c1 [N-(4-(4-methylpiperazin-1-yl)phenyl)-6-o-tolylquinolin-4-amine]
COc1ccc(-c2ccc3nccc(N(C)c4ccc(N5CCN(C)CC5)cc4)c3c2)cc1 [6-(4-methoxyphenyl)-N-methyl-N-(4-(4-methylpiperazin-1-yl)phenyl)quinolin-4-amine]
CN1CCN(c2ccc(Nc3ccnc4ccc(-c5cccc6ccccc56)cc34)cc2)CC1 [N-(4-(4-methylpiperazin-1-yl)phenyl)-6-(naphthalen-1-yl)quinolin-4-amine]
CN1CCN(c2ccc(Nc3ccnc4ccc(-c5ccc6ccccc6c5)cc34)cc2)CC1 [N-(4-(4-methylpiperazin-1-yl)phenyl)-6-(naphthalen-2-yl)quinolin-4-amine]
